We go through two molecules from patent publication US20230365546A1, “5-SUBSTITUTED INDOLE 3-AMIDE DERIVATIVES, PREPARATION METHOD AND USE THEREOF” (ORIGIANT PHARMACEUTICAL CO., LTD, priority 2020, published 2023).

One test addresses RIPK1 (Homo sapiens (Human), UniProt Q13546). Put plainly: In vitro kinase assay (Eurofins Kinase Profiler), IC50. Type of test: biochemical. As to conditions: 0.001-10 μM, read-out: RIPK 1 (IC50).
Test [1] has as its system RIPK1 autophosphorylation, phosphorylation of RIPK3 and MLKL. Briefly: Regulation of RIPK1 signaling pathway (Western blot). Type of test: cell-based. As to conditions: TNF α/Smac mimetic/Z-VAD-FMK induced, FIG. 4. From the text:
TNF α was purchased from PeproTech Inc., Smac mimetic and Z-VAD-FMK was purchased from Selleck Inc., RIPA lysis buffer was purchased from Beyotime Institute of Biotechnology, cocktail was purchased from MedChemExpress (MCE) Limited, PMSF protease inhibitors, sodium dodecylsulfonate SDS, and glycine were purchased from Sigma Inc., acrylamide, tris(hydroxymethyl)aminomethane Tris, ammonium persulfate APS and N,N,N′,N′-tetramethyl ethylenediamine TEMED were purchased from Wuhan Servicebio Technology Co., Ltd.
Extraction of total cellular protein: after the cells were treated by adding the corresponding concentration of Compounds 94 and 46 or blank vehicle to the cell supernatant and induced with TNF α/Smac mimetic/Z-VAD-FMK combination for a certain period of time, the supernatant was discarded, followed by washing three times with pre-cooled PBS or normal saline, then an appropriate volume of RIPA lysis buffer (containing 1% cocktail and 1% PMSF protease inhibitor) was added, the mixture was immediately placed on ice horizontally for lysis of 15 min, then the cell lysis buffer was scraped with a scraper and transferred to a 1.5 ml EP tube, and the cells were disrupted with a sonicator. The tubes were then centrifuged in a low temperature high speed centrifuge (12000 rpm, 15 min) to remove cell debris. […]
In general terms: In western blotting, separated proteins are transferred to a membrane and probed.

The subject of another test is HT-29 cells. Put plainly: Protection against programmed necrosis of HT-29 cells (TNF α/Smac mimetic/Z-VAD-FMK, CCK8). The test is classed as cell-based. As to conditions: Homo sapiens.
Another test relates to TNF α-induced SIRS. Briefly: TNF α-induced mouse SIRS model. As to conditions: 40 mg/kg oral once before TNF α 500 μg/kg i.v. The test is classed as in vivo. As for the experimental part: TNF α formulated in sterile normal saline was administered at a dose of 500 μg/kg by tail vein injection for modeling. The body temperature of the mice was measured by an infrared electric thermometer. The orally-administrated vehicle was 25% castor oil in ethanol and 75% normal saline. Compounds 94 and 46 and RIPK1 positive compound GSK2982772 were administered orally before modeling with a dose of 40 mg/kg. Body temperature and the survival of mice were recorded every hour and recorded for 24 h and 48 h after 11 h.
This experiment established a TNF α-induced SIRS mouse model to evaluate the in vivo activity of compounds of the present invention. TNF α formulated in sterile normal saline was administered to mice at a dose of 500 μg/kg by tail vein injection for modeling. Since the measurement of rectal temperature would cause mechanical injury to mice and may interfere with the experimental results, an infrared electric thermometer was used to measure the body temperature of mice and the survival condition was observed. Compounds 94 and 46 were administered at a dose of 40 mg/kg once prior to modeling. The Vehicle group was given the corresponding vehicle control.

For another test, the system named is DSS-induced colitis. Put plainly: DSS-induced mouse IBD model. As to conditions: 40 mg/kg oral from day 7 after 2.5% DSS.

Like-named read-outs stand apart in the source and are kept apart here.

Broadly, the IC50 is the concentration needed to halve the response being measured. Usually EC50 stands for the concentration giving half of the maximal effect.

RIPK1, sequence (Q13546 whole entry): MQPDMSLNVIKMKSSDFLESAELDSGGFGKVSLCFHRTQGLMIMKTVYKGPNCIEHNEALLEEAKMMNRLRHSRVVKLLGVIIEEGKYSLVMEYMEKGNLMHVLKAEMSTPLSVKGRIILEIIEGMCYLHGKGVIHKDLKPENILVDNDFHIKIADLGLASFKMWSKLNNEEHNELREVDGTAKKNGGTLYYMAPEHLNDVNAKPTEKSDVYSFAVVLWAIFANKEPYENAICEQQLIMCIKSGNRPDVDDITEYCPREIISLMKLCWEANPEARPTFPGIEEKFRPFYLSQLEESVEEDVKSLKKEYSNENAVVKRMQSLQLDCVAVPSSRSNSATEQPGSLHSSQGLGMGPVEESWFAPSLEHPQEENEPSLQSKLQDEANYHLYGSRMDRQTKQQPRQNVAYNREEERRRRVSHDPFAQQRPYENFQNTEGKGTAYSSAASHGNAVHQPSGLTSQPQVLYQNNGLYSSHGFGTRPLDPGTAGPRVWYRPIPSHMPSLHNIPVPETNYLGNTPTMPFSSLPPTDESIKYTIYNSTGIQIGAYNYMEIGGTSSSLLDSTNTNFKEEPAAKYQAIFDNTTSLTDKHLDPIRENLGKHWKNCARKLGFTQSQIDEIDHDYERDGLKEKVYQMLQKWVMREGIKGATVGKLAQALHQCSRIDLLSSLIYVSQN
Experimental for DSS-induced colitis: Female C57BL/6 mice weighing 17-20 g were used. […] Fresh DSS solution was changed on Days 2, 4, and 6, respectively. […] The Control group was given normal drinking water daily and corresponding vehicles orally starting on day 7. Body weights and survival rates of mice were recorded daily. Survival curves were fitted using Graphpad Prism 5.0 software. Mice (2/group) were sacrificed on day 12 and observed for changes in colon length.

Turning to `C[C@H](NC(=O)c1cn(C)c2ccc(-c3ccc4nc(NC(=O)C5CC5)sc4c3)cc12)c1cccc(F)c1` [Compound 46], the IC50 on RIPK1 was in the range of 10 to 100 nM. Further, in test [1], the “Effect on necrotic signaling pathway (RIPK1 autophosphorylation, RIPK3 and MLKL phosphorylation)” value was “affected the phosphorylation of RIPK3 and MLKL downstream of RIPK1 by inhibiting its autophosphorylation”. Also, the EC50 with HT-29 cells (TNF α/Smac mimetic/Z-VAD-FMK induced 24 h, CCK8, read-out: HT-29 (EC50)) was below 1 nM; in the test on HT-29 cells (TSZ-induced, FIG. 3, read-out: EC50 value, programmed necrosis model of HT-29), 0.07 nM. Moreover, the Overall mortality entry in the test with TNF α-induced SIRS (compared with Vehicle group) is “significantly reduced”. In the test on TNF α-induced SIRS (within 11 h), the “Body temperature of mice” value was “relatively normal”.
As for GSK3145095 [reference compound], in the test with DSS-induced colitis, the Death of mice result is recorded as “occurrence of murine death”. In addition, the “Body weight of mice” value with DSS-induced colitis (FIG. 6) is “continuous declination in body weight”.
